Results taken from US8088761B2, “Enzyme inhibitors” (Cancer Research Technology Limited, priority 2005, dated 2012).
Like-named read-outs stand apart in the source and are kept apart here.

Experiments:
Aurora-A = target: T1, Aurora-A (Homo sapiens, UniProt O14965); experiment: Flashplate Aurora A enzyme inhibition assay; assay type: biochemical; conditions: read-out: Aurora-A inhibition
T1 sequence (O14965 1-403): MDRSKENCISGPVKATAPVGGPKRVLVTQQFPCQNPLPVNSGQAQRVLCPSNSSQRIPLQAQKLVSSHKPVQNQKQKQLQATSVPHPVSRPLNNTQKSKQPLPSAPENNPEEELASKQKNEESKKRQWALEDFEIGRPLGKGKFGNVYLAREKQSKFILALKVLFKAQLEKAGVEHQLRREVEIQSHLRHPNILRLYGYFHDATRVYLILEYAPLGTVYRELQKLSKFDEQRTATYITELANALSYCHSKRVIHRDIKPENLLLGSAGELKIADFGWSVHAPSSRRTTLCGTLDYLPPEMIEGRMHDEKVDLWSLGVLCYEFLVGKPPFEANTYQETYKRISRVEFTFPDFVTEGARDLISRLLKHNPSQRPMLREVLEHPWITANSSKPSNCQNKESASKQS
Summary of the method: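 This is a radiometric Flashplate format: plates were precoated with DTT, and compound (in 2% DMSO) was mixed with kinase buffer (pH 7.5 Tris, MgCl2, NaCl) containing 1 mM MBP, 20 μM ATP and ^33P-ATP. The reaction was started with 250 ng Aurora-A per well and incubated 2 h at RT. It was then stopped by 10 mM sodium pyrophosphate washing, and plates were scintillation-counted.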

HCT116 cells = experiment: Cell viability assay (MTT) in HCT116 cell line; assay type: cell-based; conditions: Homo sapiens, HCT-116, 72 hrs, IC50 range, read-out: HCT116 cell growth inhibition
Summary of the method: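 MTT read-out (4 hrs, 37 °C, DMSO extraction) following 72 hrs of treatment with 0-50 μM Aurora inhibitor. HCT116 cells were plated a day earlier and tested in triplicate; IC50 derived from the curve.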

Row | Structure (SMILES) | IC50 (Aurora-A; Flashplate assay, IC50 range) [µM] | IC50 (HCT116 cells) [µM] | IC50 (Aurora-A) [µM]
1 | NCc1ccc(-c2nc3c(N4CCC(Oc5ccccc5)CC4)c(Br)cnc3[nH]2)cc1 [Example 135, (4-(6-Bromo-7-(4-phenoxypiperidin-1-yl)-3H-imidazo[4,5-b]pyridin-2-yl)phenyl)methanamine] | < 0.5 | 0.5 to 2 | 
2 | CC(C)(C)OC(=O)N1CCN(c2ccc(-c3nc4c(N5CCN(Cc6cccnc6)CC5)c(Cl)cnc4[nH]3)cc2)CC1 [Example 136, tert-Butyl 4-(4-(6-chloro-7-(4-(pyridin-3-ylmethyl)piperazin-1-yl)-3H-imidazo[4,5-b]pyridin-2-yl)phenyl)piperazine-1-carboxylate] | 0.5 to 2 | 2 to 50 | 
3 | Clc1cnc2[nH]c(-c3ccc(N4CCNCC4)cc3)nc2c1N1CCN(Cc2cccnc2)CC1 [Example 137, 6-Chloro-2-(4-(piperazin-1-yl)phenyl)-7-(4-(pyridin-3-ylmethyl)piperazin-1-yl)-3H-imidazo[4,5-b]pyridine] | < 0.5 | 0.5 to 2 | 
4 | COc1ccc(-c2nc3c(N4CCN(Cc5cncnc5)CC4)c(Cl)cnc3[nH]2)cc1 [Example 139, 6-Chloro-2-(4-methoxyphenyl)-7-(4-(pyrimidin-5-ylmethyl)piperazin-1-yl)-3H-imidazo[4,5-b]pyridine] | < 0.5 | 0.5 to 2 | 
5 | COc1ccc(-c2nc3c(N4CCN(C(C)c5ccncc5)CC4)c(Cl)cnc3[nH]2)cc1 (centres unmarked) [Example 142, 6-Chloro-2-(4-methoxyphenyl)-7-(4-(1-(pyridin-4-yl)ethyl)piperazin-1-yl)-3H-imidazo[4,5-b]pyridine] | < 0.5 | < 0.5 | 
6 | CCN1CCN(c2c(Cl)cnc3[nH]c(-c4ccc(Cn5cccn5)cc4)nc23)CC1 [Example 143, 2-(4-((1H-pyrazol-1-yl)methyl)phenyl)-6-chloro-7-(4-ethylpiperazin-1-yl)-3H-imidazo[4,5-b]pyridine] | < 0.5 | < 0.5 | 
7 | COc1ccc(-c2nc3c(N4CCN(Cc5csc(C)n5)CC4)c(Br)cnc3[nH]2)cc1 [Example 144, 4-((4-(6-Bromo-2-(4-methoxyphenyl)-3H-imidazo[4,5-b]pyridin-7-yl)piperazin-1-yl)methyl)-2-methylthiazole] | < 0.5 | < 0.5 | 
8 | COc1ccc(-c2nc3c(N4CCN(Cc5coc(C(C)C)n5)CC4)c(Br)cnc3[nH]2)cc1 [Example 145, 4-((4-(6-bromo-2-(4-methoxyphenyl)-3H-imidazo[4,5-b]pyridin-7-yl)piperazin-1-yl)methyl)-2-isopropyloxazole] | < 0.5 | < 0.5 | 
9 | COc1ccc(-c2nc3c(N4CCN(Cc5ccc(F)cc5)CC4)c(Br)cnc3[nH]2)cc1 [Example 147, 6-Bromo-7-(4-(4-fluorobenzyl)piperazin-1-yl)-2-(4-methoxyphenyl)-3H-imidazo[4,5-b]pyridine] | < 0.5 | 2 to 50 | 
10 | COc1ccc(-c2nc3c(N4CCN(CC5CCC5)CC4)c(Br)cnc3[nH]2)cc1 [Example 149, 6-Bromo-7-(4-(cyclobutylmethyl)piperazin-1-yl)-2-(4-methoxyphenyl)-3H-imidazo[4,5-b]pyridine] | < 0.5 | < 0.5 | 
11 | COc1ccc(-c2nc3c(N4CCN(Cc5cscn5)CC4)c(Br)cnc3[nH]2)cc1 [Example 154, 4-((4-(6-Bromo-2-(4-methoxyphenyl)-3H-imidazo[4,5-b]pyridin-7-yl)piperazin-1-yl)methyl)thiazole] |  | < 0.5 | < 0.5
12 | COc1ccc(-c2nc3c(N4CCN(Cc5cncn5C)CC4)c(Br)cnc3[nH]2)cc1 [Example 165, 6-Bromo-2-(4-methoxyphenyl)-7-(4-((1-methyl-1H-imidazol-5-yl)methyl)piperazin-1-yl)-3H-imidazo[4,5-b]pyridine] | < 0.5 | 0.5 to 2 | 
13 | Cn1ccnc1CN1CCN(c2c(Br)cnc3[nH]c(-c4ccc(CN5CCOCC5)cc4)nc23)CC1 [Example 166, 4-(4-(6-Bromo-7-(4-((1-methyl-1H-imidazol-2-yl)methyl)piperazin-1-yl)-3H-imidazo[4,5-b]pyridin-2-yl)benzyl)morpholine] | < 0.5 | 0.5 to 2 | 
14 | COc1ccc(-c2nc3c(N4CCN(Cc5cn(C)cn5)CC4)c(Br)cnc3[nH]2)cc1 [Example 168, 6-Bromo-2-(4-methoxyphenyl)-7-(4-((1-methyl-1H-imidazol-4-yl)methyl)piperazin-1-yl)-3H-imidazo[4,5-b]pyridine] | < 0.5 | 2 to 50 | 

Continued, in another order:

Row | IC50 (Aurora-A; Flashplate assay, IC50 range) [µM] | IC50 (HCT116 cells) [µM] | Structure (SMILES) | IC50 (Aurora-A) [µM]
15 | < 0.5 | 0.5 to 2 | Clc1cnc2[nH]c(-c3ccc(Cn4cccn4)cc3)nc2c1N1CCN(Cc2cccnc2)CC1 [Example 138, 2-(4-((1H-Pyrazol-1-yl)methyl)phenyl)-6-chloro-7-(4-(pyridin-3-ylmethyl)piperazin-1-yl)-3H-imidazo[4,5-b]pyridine] | 
16 | < 0.5 | < 0.5 | CC(C)(C)OC(=O)N1CCN(Cc2ccc(-c3nc4c(N5CCN(Cc6cncnc6)CC5)c(Cl)cnc4[nH]3)cc2)CC1 [Example 140, tert-Butyl 4-(4-(6-chloro-7-(4-(pyrimidin-5-ylmethyl)piperazin-1-yl)-3H-imidazo[4,5-b]pyridin-2-yl)benzyl)piperazine-1-carboxylate] | 
17 | < 0.5 | 0.5 to 2 | Clc1cnc2[nH]c(-c3ccc(CN4CCNCC4)cc3)nc2c1N1CCN(Cc2cncnc2)CC1 [Example 141, 6-Chloro-2-(4-(piperazin-1-ylmethyl)phenyl)-7-(4-(pyrimidin-5-ylmethyl)piperazin-1-yl)-3H-imidazo[4,5-b]pyridine] | 
18 | < 0.5 | 0.5 to 2 | Fc1ccc(CN2CCN(c3c(Br)cnc4[nH]c(-c5ccc(CN6CCOCC6)cc5)nc34)CC2)cc1 [Example 148, 4-(4-(6-Bromo-7-(4-(4-fluorobenzyl)piperazin-1-yl)-3H-imidazo[4,5-b]pyridin-2-yl)benzyl)morpholine] | 
19 | < 0.5 | < 0.5 | Brc1cnc2[nH]c(-c3ccc(CN4CCOCC4)cc3)nc2c1N1CCN(CC2CCC2)CC1 [Example 150, 4-(4-(6-Bromo-7-(4-(cyclobutylmethyl)piperazin-1-yl)-3H-imidazo[4,5-b]pyridin-2-yl)benzyl)morpholine] | 
20 | < 0.5 | 0.5 to 2 | Brc1cnc2[nH]c(-c3ccc(CN4CCOCC4)cc3)nc2c1N1CCN(Cc2nccs2)CC1 [Example 152, 4-(4-(6-Bromo-7-(4-(thiazol-2-ylmethyl)piperazin-1-yl)-3H-imidazo[4,5-b]pyridin-2-yl)benzyl)morpholine] | 
21 | < 0.5 | 2 to 50 | CC(C)c1nc(CN2CCN(c3c(Br)cnc4[nH]c(-c5ccc(CN6CCOCC6)cc5)nc34)CC2)cs1 [Example 155, 4-(4-(6-Bromo-7-(4-((2-isopropylthiazol-4-yl)methyl)piperazin-1-yl)-3H-imidazo[4,5-b]pyridin-2-yl)benzyl)morpholine] | 
22 | < 0.5 | < 0.5 | Cc1nc(CN2CCN(c3c(Br)cnc4[nH]c(-c5ccc(CN6CCOCC6)cc5)nc34)CC2)cs1 [Example 156, 4-(4-(6-Bromo-7-(4-((2-methylthiazol-4-yl)methyl)piperazin-1-yl)-3H-imidazo[4,5-b]pyridin-2-yl)benzyl)morpholine] | 
23 | < 0.5 | 0.5 to 2 | Cc1nc(CN2CCN(c3c(Br)cnc4[nH]c(-c5ccc(N6CCOCC6)cc5)nc34)CC2)cs1 [Example 159, 4-(4-(6-Bromo-7-(4-((2-methylthiazol-4-yl)methyl)piperazin-1-yl)-3H-imidazo[4,5-b]pyridin-2-yl)phenyl)morpholine] | 
24 | < 0.5 | < 0.5 | Brc1cnc2[nH]c(-c3ccc(CN4CCOCC4)cc3)nc2c1N1CCN(Cc2cscn2)CC1 [Example 160, 4-(4-(6-Bromo-7-(4-(thiazol-4-ylmethyl)piperazin-1-yl)-3H-imidazo[4,5-b]pyridin-2-yl)benzyl)morpholine] | 
25 | < 0.5 | 2 to 50 | Cc1nc(CN2CCN(c3c(Br)cnc4[nH]c(-c5ccc(-n6cccn6)cc5)nc34)CC2)cs1 [Example 161, 4-((4-(2-(4-(1H-Pyrazol-1-yl)phenyl)-6-bromo-3H-imidazo[4,5-b]pyridin-7-yl)piperazin-1-yl)methyl)-2-methylthiazole] | 
26 | < 0.5 | < 0.5 | Cc1nc(CN2CCN(c3c(Br)cnc4[nH]c(-c5ccc(N6CCNCC6)cc5)nc34)CC2)cs1 [Example 163, 4-((4-(6-Bromo-2-(4-(piperazin-1-yl)phenyl)-3H-imidazo[4,5-b]pyridin-7-yl)piperazin-1-yl)methyl)-2-methylthiazole] | 
27 | < 0.5 | < 0.5 | Cc1nc(CN2CCN(c3c(Br)cnc4[nH]c(-c5ccc(CN6CCNCC6)cc5)nc34)CC2)cs1 [Example 164, 4-((4-(6-Bromo-2-(4-(piperazin-1-ylmethyl)phenyl)-3H-imidazo[4,5-b]pyridin-7-yl)piperazin-1-yl)methyl)-2-methylthiazole] | 
28 | < 0.5 | 0.5 to 2 | COc1ccc(-c2nc3c(N4CCN(Cc5nccn5C)CC4)c(Br)cnc3[nH]2)cc1 [Example 167, 6-Bromo-2-(4-methoxyphenyl)-7-(4-((1-methyl-1H-imidazol-2-yl)methyl)piperazin-1-yl)-3H-imidazo[4,5-b]pyridine] | 
